According to ChEMBL document CHEMBL1135199, “Structure-activity relationships of non-imidazole H(3) receptor ligands. Part 2: binding preference for D-amino acids motifs” (Bioorg Med Chem Lett, 2002):

Experiments:
Histamine H1 receptor = Histamine H1 receptor (Homo sapiens, UniProt P35367); experiment: Binding affinity towards Histamine H1 receptor of human membranes.
Histamine H3 receptor [1] = molecular target: Histamine H3 receptor (Rattus norvegicus, UniProt Q9QYN8); experiment: Binding affinity towards Histamine H3 receptor of rat cortical membranes.
Histamine H2 receptor = Histamine H2 receptor (Homo sapiens, UniProt P25021); experiment: Binding affinity towards Histamine H2 receptor from human membranes
[2] = Oral bioavailability in rat (dose 5 mg/kg p.o.); assay type: ADME, organism-based; details: in vivo
[3] = molecular target: Histamine H3 receptor (Rattus norvegicus) (UniProt Q9QYN8); experiment: In vitro histamine H3 receptor antagonist activity was determined by K+-evoked depolarization- induced release of [3H]histamine from rat synaptosomes; assay type: functional, subcellular; details: Brain
Histamine H3 receptor [4] = molecular target: Histamine H3 receptor (Cavia porcellus, UniProt Q9JI35); experiment: Tested in vitro for histamine H3 receptor mediate inhibition of neurogenic contractions in guinea pig isolated ileum assay; assay type: functional, tissue-based; details: read-out: pA2 (converted)
Sequence of Histamine H3 receptor (Cavia porcellus, UniProt Q9JI35) (Q9JI35 whole entry): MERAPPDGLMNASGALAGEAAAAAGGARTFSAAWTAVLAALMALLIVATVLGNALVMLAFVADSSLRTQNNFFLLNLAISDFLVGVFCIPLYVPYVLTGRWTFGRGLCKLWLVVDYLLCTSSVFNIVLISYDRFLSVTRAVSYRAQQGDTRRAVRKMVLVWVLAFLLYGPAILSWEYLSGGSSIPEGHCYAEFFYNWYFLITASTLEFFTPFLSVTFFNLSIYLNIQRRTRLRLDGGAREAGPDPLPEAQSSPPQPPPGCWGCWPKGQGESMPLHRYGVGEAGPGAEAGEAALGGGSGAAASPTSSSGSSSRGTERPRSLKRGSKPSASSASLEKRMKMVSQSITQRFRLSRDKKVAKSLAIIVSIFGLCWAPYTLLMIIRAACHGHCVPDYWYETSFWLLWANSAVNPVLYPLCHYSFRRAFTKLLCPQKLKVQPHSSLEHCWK

Sequence of Histamine H3 receptor (Rattus norvegicus, UniProt Q9QYN8) (Q9QYN8 whole entry): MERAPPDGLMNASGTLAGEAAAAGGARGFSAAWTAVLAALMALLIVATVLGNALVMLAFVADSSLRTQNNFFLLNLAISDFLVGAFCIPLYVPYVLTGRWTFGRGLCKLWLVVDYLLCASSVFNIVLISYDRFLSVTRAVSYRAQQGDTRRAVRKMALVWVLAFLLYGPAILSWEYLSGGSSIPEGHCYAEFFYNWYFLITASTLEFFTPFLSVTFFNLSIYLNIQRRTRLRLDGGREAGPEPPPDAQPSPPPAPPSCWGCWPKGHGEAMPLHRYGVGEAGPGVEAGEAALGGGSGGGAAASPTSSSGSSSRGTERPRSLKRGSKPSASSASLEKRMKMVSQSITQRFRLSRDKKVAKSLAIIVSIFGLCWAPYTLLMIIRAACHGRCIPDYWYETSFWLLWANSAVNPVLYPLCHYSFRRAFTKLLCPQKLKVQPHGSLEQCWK
Sequence of Histamine H2 receptor (P25021 whole entry): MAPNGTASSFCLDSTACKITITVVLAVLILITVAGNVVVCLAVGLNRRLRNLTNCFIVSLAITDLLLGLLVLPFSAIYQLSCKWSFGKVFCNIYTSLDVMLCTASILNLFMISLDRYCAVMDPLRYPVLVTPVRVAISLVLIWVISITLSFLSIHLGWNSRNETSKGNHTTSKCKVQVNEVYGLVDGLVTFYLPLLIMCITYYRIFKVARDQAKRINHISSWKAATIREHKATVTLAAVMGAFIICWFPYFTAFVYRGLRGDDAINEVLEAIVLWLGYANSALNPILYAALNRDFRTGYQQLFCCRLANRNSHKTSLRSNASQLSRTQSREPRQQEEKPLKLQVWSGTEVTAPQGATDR
Sequence of Histamine H1 receptor (P35367 whole entry): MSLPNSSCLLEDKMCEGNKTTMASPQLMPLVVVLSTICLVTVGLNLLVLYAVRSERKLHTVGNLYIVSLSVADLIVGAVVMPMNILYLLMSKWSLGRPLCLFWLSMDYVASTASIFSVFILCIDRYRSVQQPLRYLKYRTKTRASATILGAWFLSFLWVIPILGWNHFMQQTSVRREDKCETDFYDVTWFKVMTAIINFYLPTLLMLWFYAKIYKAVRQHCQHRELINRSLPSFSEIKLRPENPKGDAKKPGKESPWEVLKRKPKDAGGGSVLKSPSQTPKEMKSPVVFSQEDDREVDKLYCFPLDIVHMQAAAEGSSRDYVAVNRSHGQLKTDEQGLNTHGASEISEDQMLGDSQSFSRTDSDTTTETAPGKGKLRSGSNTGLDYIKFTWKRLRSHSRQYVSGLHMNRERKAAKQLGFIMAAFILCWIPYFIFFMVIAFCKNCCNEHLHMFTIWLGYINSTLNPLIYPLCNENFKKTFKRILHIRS
Sequence of Histamine H3 receptor (Rattus norvegicus) (Q9QYN8 whole entry): as the sequence (Q9QYN8 whole entry) above

Row | Ki (Histamine H1 receptor) [µM] | Ki (Histamine H3 receptor [1]) [µM] | Ki (Histamine H2 receptor) [µM] | bioavailability [2] [%] | pKb [3] | Kb (Histamine H3 receptor [4]) [µM] | Structure (SMILES)
1 | 2 | 0.214 | 20.9 | – | – | – | N[C@H](Cc1cccc2ccccc12)C(=O)N1CCN(CCCOc2ccc(C(=O)C3CC3)cc2)CC1
2 | 46.8 | 0.00398 | 60.3 | – | – | – | CCC[C@@H](N)C(=O)N1CCN(CCCOc2ccc(C(=O)C3CC3)cc2)CC1
3 | 19.1 | 0.0794 | 38 | – | – | – | CCCCCC(=O)c1ccc(OCCCN2CCN(C(=O)[C@@H](N)C(C)C)CC2)cc1
4 | 10 | 0.0129 | 12.3 | – | – | – | O=C(c1ccc(OCCCN2CCN(C(=O)[C@@H]3CCN3)CC2)cc1)C1CC1
5 | 5.5 | 0.00398 | 10 | – | – | – | CC(C)(C)OC(=O)N[C@H](Cc1ccccc1)C(=O)N1CCN(CCCOc2ccc(C(=O)C3CC3)cc2)CC1
6 | 46.8 | 0.00871 | 50.1 | – | – | – | CC(C)N[C@H](C)C(=O)N1CCN(CCCOc2ccc(C(=O)C3CC3)cc2)CC1
7 | 14.5 | 0.0617 | 14.1 | – | – | – | CCCCCC(=O)c1ccc(OCCCN2CCN(C(=O)[C@H](N)CC(C)C)CC2)cc1
8 | 21.9 | 0.0427 | 26.9 | – | – | – | O=C1C[C@H](N2CCN(CCCOc3ccc(C(=O)C4CC4)cc3)CC2)N1
9 | 4.37 | 0.288 | 15.1 | – | – | – | N[C@H](Cc1cc2ccccc2s1)C(=O)N1CCN(CCCOc2ccc(C(=O)C3CC3)cc2)CC1
10 | 10 | 0.00437 | 10 | – | – | – | O=C1C[C@@H](N2CCN(CCCOc3ccc(C(=O)C4CC4)cc3)CC2)N1
11 | 45.7 | 0.0288 | 72.4 | – | – | – | N#CC[C@@H](N)C(=O)N1CCN(CCCOc2ccc(C(=O)C3CC3)cc2)CC1
12 | 70.8 | 0.00158 | 100 | – | – | – | CC[C@@H](N)C(=O)N1CCN(CCCOc2ccc(C(=O)C3CC3)cc2)CC1 (stereo in doubt; 43)
13 | 6.76 | 0.00123 | 10.7 | – | – | – | CCCCCC(=O)c1ccc(OCCCN2CCN(C(=O)[C@@H](C)NC(=O)OC(C)(C)C)CC2)cc1
14 | 14.5 | 0.162 | 20.4 | – | – | – | N[C@H](CC1CCCCC1)C(=O)N1CCN(CCCOc2ccc(C(=O)C3CC3)cc2)CC1
15 | 4.57 | 0.0275 | 24.5 | – | – | – | N[C@@H](C(=O)N1CCN(CCCOc2ccc(C(=O)C3CC3)cc2)CC1)c1ccccc1
16 | 16.6 | 0.017 | 31.6 | – | – | – | CCCCCC(=O)c1ccc(OCCCN2CCN(C(=O)[C@H](N)C(C)C)CC2)cc1
17 | 12 | 0.132 | 20.4 | – | – | – | N[C@H](Cc1ccc(-c2ccccc2)cc1)C(=O)N1CCN(CCCOc2ccc(C(=O)C3CC3)cc2)CC1
18 | – | – | – | 0 | – | – | CCCCCC(=O)c1ccc(OCCCN2CCN(C(=O)OCC)CC2)cc1
19 | 28.2 | 0.000501 | 100 | 46 | – | – | NCCC(=O)N1CCN(CCCOc2ccc(C(=O)C3CC3)cc2)CC1
20 | 17 | 0.0024 | 22.9 | – | – | – | CCCCCC(=O)c1ccc(OCCCN2CCN(C(=O)[C@@H](CO)NC(=O)OC(C)(C)C)CC2)cc1
21 | 21.9 | 0.0525 | 19.1 | – | – | – | CC(C)(C)[C@@H](N)C(=O)N1CCN(CCCOc2ccc(C(=O)C3CC3)cc2)CC1

Further lines, the compound ahead of its results:

Row | Structure (SMILES) | Ki (Histamine H1 receptor) [µM] | Ki (Histamine H3 receptor [1]) [µM] | Ki (Histamine H2 receptor) [µM] | bioavailability [2] [%] | pKb [3] | Kb (Histamine H3 receptor [4]) [µM]
22 | CC[C@H](N)C(=O)N1CCN(CCCOc2ccc(C(=O)C3CC3)cc2)CC1 | 4.68 | 0.00251 | 10.7 | – | – | –
23 | O=C(c1ccc(OCCCN2CCN(C(=O)C[C@H]3CCCN3)CC2)cc1)C1CC1 | 95.5 | – | 89.1 | – | – | –
24 | CCCCCC(=O)c1ccc(OCCCN2CCN(C(=O)[C@H](Cc3ccncc3)NC(=O)OC(C)(C)C)CC2)cc1 | 9.33 | 0.0537 | 14.8 | – | – | –
25 | CN[C@@H](C(=O)N1CCN(CCCOc2ccc(C(=O)C3CC3)cc2)CC1)C(C)C | 34.7 | 0.0759 | 49 | – | – | –
26 | C[C@@H](CN)C(=O)N1CCN(CCCOc2ccc(C(=O)C3CC3)cc2)CC1 | 1.51 | 0.00646 | 10.2 | – | – | –
27 | CCCCCC(=O)c1ccc(OCCCN2CCN(C(=O)[C@@H](N)Cc3ccncc3)CC2)cc1 | 2.29 | 0.0102 | 34.7 | – | – | –
28 | N[C@@H](C(=O)N1CCN(CCCOc2ccc(C(=O)C3CC3)cc2)CC1)C1Cc2ccccc2C1 | 10.7 | 0.0263 | 19.1 | – | – | –
29 | N[C@H](Cc1ccsc1)C(=O)N1CCN(CCCOc2ccc(C(=O)C3CC3)cc2)CC1 | 9.77 | 0.0229 | 46.8 | – | – | –
30 | CN[C@H](Cc1ccccc1)C(=O)N1CCN(CCCOc2ccc(C(=O)C3CC3)cc2)CC1 | 13.5 | 0.0437 | 17.8 | – | – | –
31 | CC(C)(C)C[C@@H](N)C(=O)N1CCN(CCCOc2ccc(C(=O)C3CC3)cc2)CC1 | 10.2 | – | – | – | – | –
32 | CCCCCC(=O)c1ccc(OCCCN2CCN(C(=O)[C@H](CC(C)C)NC(=O)OC(C)(C)C)CC2)cc1 | 8.13 | 0.112 | 3.47 | – | – | –
33 | C[C@H](CN)C(=O)N1CCN(CCCOc2ccc(C(=O)C3CC3)cc2)CC1 | 1.74 | 0.00891 | 10.7 | – | – | –
34 | CCCCCC(=O)c1ccc(OCCCN2CCN(C(=O)[C@@H](Cc3ccncc3)NC(=O)OC(C)(C)C)CC2)cc1 | 17 | 0.0234 | 12 | – | – | –
35 | CCCCCC(=O)c1ccc(OCCCN2CCN(C(=O)[C@@H](C)N)CC2)cc1 | 35.5 | 0.00191 | 40.7 | – | – | –
36 | CCCCCC(=O)c1ccc(OCCCN2CCN(C(=O)[C@H](N)CO)CC2)cc1 | 46.8 | 0.00708 | 34.7 | – | – | –
37 | CCCCCC(=O)c1ccc(OCCCN2CCN(C(=O)[C@@H](CC(C)C)NC(=O)OC(C)(C)C)CC2)cc1 | 4.68 | 0.0145 | 4.47 | – | – | –
38 | CCCCCC(=O)c1ccc(OCCCN2CCN(C(=O)[C@@H](NC(=O)OC(C)(C)C)C(C)C)CC2)cc1 | 10.7 | 0.0977 | 12.6 | – | – | –

Row | Structure (SMILES) | Ki (Histamine H1 receptor) [µM] | Ki (Histamine H3 receptor [1]) [µM] | Ki (Histamine H2 receptor) [µM] | bioavailability [2] [%] | pKb [3] | Kb (Histamine H3 receptor [4]) [µM]
39 | CCCCCC(=O)c1ccc(OCCCN2CCN(C(=O)[C@H](N)Cc3ccncc3)CC2)cc1 | 3.31 | 0.00912 | 37.2 | – | – | –
40 | O=C(c1ccc(OCCCN2CCN(C(=O)[C@H]3CCCN3)CC2)cc1)C1CC1 | 37.2 | 0.0302 | 53.7 | – | – | –
41 | CC(C)(C)OC[C@@H](N)C(=O)N1CCN(CCCOc2ccc(C(=O)C3CC3)cc2)CC1 | 16.2 | 0.00851 | 45.7 | – | – | –
42 | C[C@@H](NC(=O)OC(C)(C)C)C(=O)N1CCN(CCCOc2ccc(C(=O)C3CC3)cc2)CC1 | 8.13 | – | 83.2 | – | – | –
43 | CCCCCC(=O)c1ccc(OCCCN2CCN(C(=O)[C@H](NC(=O)OC(C)(C)C)C(C)C)CC2)cc1 | 3.31 | 0.0148 | 13.5 | – | – | –
44 | N[C@H](Cc1ccc(F)cc1)C(=O)N1CCN(CCCOc2ccc(C(=O)C3CC3)cc2)CC1 | 9.33 | 0.0295 | 39.8 | – | – | –
45 | C[C@H](N)C(=O)N1CCN(CCCOc2ccc(C(=O)C3CC3)cc2)CC1 | 53.7 | 0.0204 | 41.7 | – | – | –
46 | N[C@H](CCc1ccccc1)C(=O)N1CCN(CCCOc2ccc(C(=O)C3CC3)cc2)CC1 | 10 | 0.00457 | 10 | – | – | –
47 | CC[C@@H](N)C(=O)N1CCN(CCCOc2ccc(C(=O)C3CC3)cc2)CC1 (stereo in doubt; 57) | 2.09 | 0.00195 | 11 | – | – | –
48 | CCCCCC(=O)c1ccc(OCCCN2CCN(C(=O)[C@@H](N)CC(C)C)CC2)cc1 | 9.77 | 0.17 | 16.6 | – | – | –
49 | N[C@H](Cc1ccc(O)cc1)C(=O)N1CCN(CCCOc2ccc(C(=O)C3CC3)cc2)CC1 | 9.77 | 0.0302 | 33.1 | – | – | –
50 | CC(C)(C)OC(=O)N1CCC[C@@H]1C(=O)N1CCN(CCCOc2ccc(C(=O)C3CC3)cc2)CC1 | 46.8 | 0.12 | 50.1 | – | – | –
51 | O=C(c1ccc(OCCCN2CCN(C(=O)[C@H]3CCN3)CC2)cc1)C1CC1 | 12.6 | 0.00132 | 14.1 | – | – | –
52 | N[C@H](Cc1c[nH]cn1)C(=O)N1CCN(CCCOc2ccc(C(=O)C3CC3)cc2)CC1 | 95.5 | 0.00457 | 89.1 | – | – | –
53 | N[C@H](Cc1nccs1)C(=O)N1CCN(CCCOc2ccc(C(=O)C3CC3)cc2)CC1 | 100 | 0.00575 | 97.7 | – | – | –
54 | CNCC(=O)N1CCN(CCCOc2ccc(C(=O)C3CC3)cc2)CC1 | 100 | 0.00229 | 79.4 | – | – | –
55 | C[C@@H](N)C(=O)N1CCN(CCCOc2ccc(C(=O)C3CC3)cc2)CC1 | 69.2 | 0.00126 | 70.8 | 83 | 8.75 | 0.105
